“Also recorded” adds a separate entry of the source. Marks after values point to notes of the source that are not given here.
How the values were obtained:
[1] = test system: wild-type (AB) zebrafish (Danio rerio); test: Maximum tolerated concentration (MTC) determination in larval zebrafish; type: in vivo; details: for MTC (maximum tolerated concentration): after 24 h exposure, 5 dpf larvae; for Concentration up to which no signs of toxicity were produced: highest concentration tested
[2] = test system: wild-type (AB) zebrafish (Danio rerio); test: animal or person; type: in vivo; details: for Effect on locomotor activity and turning behaviors, in words: 30 min spontaneous swimming period; for Concentration with significant effects on locomotor behaviors: AB zebrafish; for Distance moved / Variance turn angle: compound at 10 µM relative to controls, mean ± s.e.m., N = 12; for MEC: locomotor behaviors
[3] = test system: wild-type (AB) zebrafish (Danio rerio); type: in vivo; details: compound at 10 µM relative to controls; mean ± s.e.m., N = 12
[4] = biological target: T1, human M1 muscarinic receptors (Homo sapiens, UniProt P11229); test: [3H]AA release ACh dose-response families fitted to an allosteric operational model; details: for Operational efficacy-B, τB: best-fit ± s.e.m.; for Operational efficacy-B, τB / Affinity-B, logKB: Em set to 2.0; for Affinity-B, logKB: given as logKB (negative log value), allosteric site
T1 sequence (P11229 1-460): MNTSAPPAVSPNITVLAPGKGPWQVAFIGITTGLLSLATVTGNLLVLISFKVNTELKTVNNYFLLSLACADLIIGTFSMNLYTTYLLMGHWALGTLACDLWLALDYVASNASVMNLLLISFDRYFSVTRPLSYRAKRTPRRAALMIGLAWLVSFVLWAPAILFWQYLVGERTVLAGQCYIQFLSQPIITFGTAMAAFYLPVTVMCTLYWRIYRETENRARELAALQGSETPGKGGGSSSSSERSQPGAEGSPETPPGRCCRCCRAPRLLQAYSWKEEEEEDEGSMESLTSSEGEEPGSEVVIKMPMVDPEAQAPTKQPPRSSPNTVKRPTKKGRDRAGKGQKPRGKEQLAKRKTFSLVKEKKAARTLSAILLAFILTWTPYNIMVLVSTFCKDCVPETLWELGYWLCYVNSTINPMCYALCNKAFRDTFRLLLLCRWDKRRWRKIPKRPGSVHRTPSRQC
Experimental: Stably transfected CHO-hM1 cells were seeded on 24-well plates (Greiner Bio-One GmbH, Frickenhausen, Germany) at a density of 5.0 × 10^4 cells/well in 0.5 ml of F-12 medium. Cells were incubated until they attached (approximately 3 h), followed by the addition of [^3H]AA to a final concentration of 0.05 μCi of [^3H]AA per well. The cells were then grown for 16 to 20 h before the assay was performed. [^3H]AA release was measured in Eagle’s basal medium with 20 mM HEPES and 2 mg/ml fatty acid-free bovine serum albumin (EM-BSA). Cells were rinsed twice with EM-BSA, followed by the addition of EM-BSA media containing experimental agents and incubated for 1 h at 37 °C. The assay was terminated by aspiration of the media, and the amount of [^3H]AA released was determined by liquid scintillation counting (Beckman-Coulter LS6500).
Tabulated [^3H]AA release data are represented as a fraction of maximal release elicited by ACh or as the fraction of release elicited by the relevant concentration of ACh alone, as indicated. Dose-response curves were normalized to the maximal response of ACh without allosteric ligand. Where indicated, response curves were analyzed using the empirical four-parameter equation: Y=Top+Bottom-Top/1+X/C50^n where X is the concentration of the ligand used, Y is the amount of response, C50 is the concentration of the ligand that produces 50% of the maximal effect, Top and Bottom are the top and bottom plateaus of the curve, and n is related to the Hill slope for the curve. Where indicated, families of response curves were analyzed according to an allosteric operational model[50],[51]: Y=EM[τAA(KB+αβB)+τBBKA]/[τAA(KB+αβB)+τBBKA+AKB+KAKB+KAB+αAB] where EM is the maximal response; A is the concentration of ACh; B is the concentration of the allosteric ligand; τA and τB represent the operational efficacies of A and B, respectively; KA and KB are the equilibrium dissociation constants of A and B; and α and β represent the cooperativities between A and B in terms of binding and activation, respectively. Curve-fitting was carried out with GraphPad Prism, version 5.0 or 6.0 (San Diego CA).

[5] = biological target: T1, human M1 muscarinic receptors; test: [3H]-arachidonic acid release in CHO cells expressing M1 receptors, with and without ACh (single modulator concentration, four-parameter curves); type: cell-based; design: expressed in transfected cells; host or cells: CHO cells stably transfected with hM1, obtained from Mark Brann's laboratory (NIH); details: for 0.1 µM ACh: response with modulator present divided by response to ACh alone / 100 µM ACh: response with modulator present divided by response to ACh alone / No ACh: agonist effect of the allosteric ligand by itself, fraction of the maximal response that could be elicited by ACh: modulator 10 µM, CHO-hM1, mean ± s.e.m.; for No ACh: agonist effect of the allosteric ligand by itself, fraction of the maximal response that could be elicited by ACh: at least 4 determinations; for Effect on M1 receptor activity and ACh response, in words: modulators at 10 µM (amiodarone 30 µM)

## COc1c(I)cc(CN2C(=O)C(=O)c3ccccc32)cc1I [Compound 8a, 1-(3,5-diiodo-4-methoxybenzyl)indoline-2,3-dione]
[1]
  MTC (maximum tolerated concentration): > 30 µM
  Concentration up to which no signs of toxicity were produced: ≥ 30 µM
[2]
  Therap. index: > 100
  Effect on locomotor activity and turning behaviors, in words: reduced locomotor activity
  Concentration with significant effects on locomotor behaviors: 1 µM
  Distance moved: 45.8 ± 6.4*** %
  Variance turn angle: 161.1 ± 13.4*** %
  MEC: 0.3 µM
[3]
  Angular velocity: 197.1 ± 19.8 %
[4]
  Operational efficacy-B, τB: 0.17 ± 0.03
  Affinity-B, logKB: −6.26 ± 0.15
[5]
  0.1 µM ACh: response with modulator present divided by response to ACh alone: 2.44 ± 0.21
  100 µM ACh: response with modulator present divided by response to ACh alone: 1.62 ± 0.06
  No ACh: agonist effect of the allosteric ligand by itself, fraction of the maximal response that could be elicited by ACh: 0.24 ± 0.04
  Effect on M1 receptor activity and ACh response, in words: significant enhancement of ACh activity; also recorded: dramatically enhanced ACh efficacy

## COc1c(Br)cc(CN2C(=O)C(=O)c3ccccc32)cc1Br [Compound 8c, 1-(3,5-dibromo-4-methoxybenzyl)indoline-2,3-dione]
[1]
  MTC (maximum tolerated concentration): > 30 µM
  Concentration up to which no signs of toxicity were produced: ≥ 30 µM
[2]
  Concentration with significant effects on locomotor behaviors: 1 µM
  Distance moved: 26.9 ± 3.7*** %
  Variance turn angle: 150.8 ± 12.0*** %
  MEC: 0.1 µM
[3]
  Angular velocity: 201.6 ± 20.2 %
[4]
  Operational efficacy-B, τB: 0.33 ± 0.06
  Affinity-B, logKB: −5.53 ± 0.15
[4]; read-out: KB, affinity for M1 muscarinic receptors, allosteric operational model
  Kb: 3 µM
[5]
  0.1 µM ACh: response with modulator present divided by response to ACh alone: 2.62 ± 0.19
  100 µM ACh: response with modulator present divided by response to ACh alone: 1.42 ± 0.09
  No ACh: agonist effect of the allosteric ligand by itself, fraction of the maximal response that could be elicited by ACh: 0.19 ± 0.03
  Effect on M1 receptor activity and ACh response, in words: dramatically enhanced ACh efficacy

## CCN(CC)CCOc1ccc(CN2C(=O)C(=O)c3ccccc32)cc1 [Compound 7, 1-(4-(2-(diethylamino)ethoxy)benzyl)indoline-2,3-dione]
[1]
  MTC (maximum tolerated concentration): 10 µM
[2]
  Effect on locomotor activity and turning behaviors, in words: not effective in reducing locomotor activity or elevating angular velocity or variance of turn angle
  Distance moved: 72.5 ± 11.8%
  Variance turn angle: 93.9 ± 10.6%
  MEC: > 10 µM
[3]
  Angular velocity: 122.4 ± 6.9%
[4]
  Affinity-B, logKB: −6.20 ± 0.33
[5]
  0.1 µM ACh: response with modulator present divided by response to ACh alone: 0.06 ± 0.01
  100 µM ACh: response with modulator present divided by response to ACh alone: 1.11 ± 0.06
  No ACh: agonist effect of the allosteric ligand by itself, fraction of the maximal response that could be elicited by ACh: 0.02 ± 0.01
  Effect on M1 receptor activity and ACh response, in words: primarily decreased potency and slightly enhanced the efficacy of ACh; also recorded: lacked intrinsic activity; also recorded: decreased ACh potency with little impact on ACh efficacy
